{"source": "patent US8318799B2", "about": "“Therapeutic agent for substance dependence” (National University Corporation Kyushu University, priority 2004, dated 2012)", "key": {"male Wister/ST rats [1]": {"system": "male Wister/ST rats", "assay": "influence on methamphetamine-taking behavior (methamphetamine self-administration)", "format": "in vivo, rat", "details": "1.0 mg/kg intraperitoneally; FIG. 5", "source_text": "FIG. 5 is a graph showing the influence of the compound of the present invention on methamphetamine self-administration.\n(§1) A catheter for self-administration of methamphetamine (inner diameter of 0.5 mm, outer diameter of 1.0 mm) was inserted into the right jugular vein of male Wister/ST rats (250 to 350 g), and the end of the catheter was anchored to just outside the right atrium. An operant box used in the experiment was equipped with 2 levers. One is an active lever by which when pressed once (fixed-ratio 1 (FR1)), infusions of a very low dose of methamphetamine (0.02 mg per injection) was paired with onset of a 6-sec tone (70 dB/7 kHz) and light (300 lux) compound stimulus.\n(§2) After the animal was allowed to get methamphetamine self-administration behavior (methamphetamine-taking behavior) by the self-administration experiment for 10 days (2 hours per session), physiological saline was substituted for methamphetamine, to carry out an extinction process for 5 days (1 hour per session without drug-associated cue).\nFor examining the influence of the compound of the present invention on methamphetamine-taking behavior, 1.0 mg/kg of the compound of the present invention was administered intraperitoneally."}, "male Wister/ST rats [2]": {"system": "male Wister/ST rats", "assay": "methamphetamine-seeking behavior induced by drug-associated cue (drug self-administration procedure, after extinction)", "format": "in vivo, rat", "details": "for antagonism in cue-induced methamphetamine-seeking behavior on coadministration with the compound of the present invention: 30 minutes before cue, FIG. 7", "source_text": "(§3) First, an experimental animal is allowed to learn the drug self-administration behavior of pressing a lever to attain a substance. The animal is given a substance-containing solution simultaneously with a light-tone stimulus. After the animal is allowed to learn the substance self-administration behavior, the substance-containing solution is replaced by physiological saline. The behavior of eagerly pressing the lever for acquiring the substance comes to be observed in the experimental animal having learned the substance self-administration behavior. This behavior is regarded as substance-seeking behavior. […] However, the substance-seeking behavior will recur by the same light-tone stimulus (drug-associated stimuli) used during the self-administration training to the experimental animal or by administrating a substance inducing the central stimulant effect. This experimental system was used to examine the effect of various compounds.\n(§4) Using methamphetamine as an addictive substance, the following experiments were carried out according to a method described in Neuropsychopharmacology, 29, 1470-1478 (2004).\nas §1, §2\nOn day 6 of the extinction process, substance-seeking behavior (“craving”) was induced by drug-associated cue (tone and light) or by administering a low dose of methamphetamine (1.0 mg/kg, intraperitoneal (i.p.) administration).\nThirty minutes before this stimulation with the drug-associated cue or by the administration of a low dose of methamphetamine, […] administration of the compound of the present invention (0.32, 1.0 mg/kg, i.p.) was carried out, and a change in the methamphetamine-seeking behavior induced by drug-associated cue or by forced administration of methamphetamine was observed. […]"}, "[3]": {"details": "Eur. J. Pharmacol. 421, 181-189 (2001); cited from earlier work"}, "male Wister/ST rats [4]": {"system": "male Wister/ST rats", "assay": "methamphetamine-seeking behavior induced by forced administration of a low dose of methamphetamine (drug self-administration procedure, after extinction)", "format": "in vivo, rat", "source_text": "as §3, §4, §1\nas §2, with “cue). […]” for “cue).”"}, "male Wister/ST rats [5]": {"system": "male Wister/ST rats", "assay": "influence on occurrence of substance-seeking behavior by the compound itself", "format": "in vivo, rat", "details": "high dose 10 mg/kg i.p.; FIG. 6"}}}
{"smiles": "CCCNC(CCC)Cc1cc2ccccc2o1", "note": "(single isomer, unassigned; (-)) [the compound of the present invention, (−)-1-(benzofuran-2-yl)-2-propylaminopentane]", "values": [{"measurement": "influence on methamphetamine-taking behavior (number of active lever pressings for self-administration)", "setting": "male Wister/ST rats [1]", "value": "did not exert any influence"}, {"measurement": "methamphetamine-seeking behavior induced by drug-associated cue", "setting": "male Wister/ST rats [2]; repeated administration 1.0 mg/kg i.p. in the extinction process for 5 days, FIG. 3", "value": "suppressed significantly"}, {"measurement": "methamphetamine-seeking behavior (number of active lever-pressings, 30 minutes) induced by drug-associated cue", "setting": "male Wister/ST rats [2]; single administration 0.32, 1.0 mg/kg i.p., 30 minutes before stimulation, day 6 of extinction, FIG. 1", "value": "suppressed significantly and dose-dependently"}, {"measurement": "reduction in spontaneous motor activity induced by reserpine", "setting": "[3]", "value": "improves"}, {"measurement": "methamphetamine-seeking behavior induced by forced administration of methamphetamine", "setting": "male Wister/ST rats [4]; repeated administration 1.0 mg/kg i.p. in the extinction process for 5 days, FIG. 4", "value": "suppressed significantly"}, {"measurement": "methamphetamine-seeking behavior (number of active lever-pressings, 30 minutes) induced by forced administration of methamphetamine", "setting": "male Wister/ST rats [4]; single administration 0.32, 1.0 mg/kg i.p., 30 minutes before methamphetamine 1.0 mg/kg i.p., day 6 of extinction, FIG. 2", "value": "suppressed significantly and dose-dependently"}, {"measurement": "occurrence of methamphetamine-seeking behavior after the compound alone", "setting": "male Wister/ST rats [5]", "value": "although weak, caused methamphetamine-seeking behavior"}]}
{"smiles": "CN1CCc2cc(Cl)c(O)cc2[C@@H](c2ccccc2)C1.Cl", "note": "[SCH23390, R-(+)-7-chloro-8-hydroxy-3-methyl-1-phenyl-2,3,4,5-tetrahydro-1H-3-benza zepine hydrochloride, reference compound]", "values": [{"measurement": "antagonism in cue-induced methamphetamine-seeking behavior on coadministration with the compound of the present invention", "setting": "male Wister/ST rats [2]; SCH23390 0.0001 mg/kg s.c. with the compound of the present invention (0.32, 1.0 mg/kg i.p.)", "value": "showed a tendency to be antagonized"}]}
{"smiles": "CCN1CCCC1CNC(=O)c1cc(S(=O)(=O)CC)ccc1OC", "note": "(stereo not shown) [sultopride, reference compound]", "values": [{"measurement": "antagonism in cue-induced methamphetamine-seeking behavior on coadministration with the compound of the present invention", "setting": "male Wister/ST rats [2]; sultopride 10 mg/kg i.p. with the compound of the present invention (0.32, 1.0 mg/kg i.p.)", "value": "not"}, {"measurement": "antagonism in methamphetamine-induced methamphetamine-seeking behavior on coadministration with the compound of the present invention", "setting": "male Wister/ST rats [4]; sultopride 10 mg/kg i.p. with the compound of the present invention (0.32, 1.0 mg/kg i.p.), 30 minutes before low dose of methamphetamine, FIG. 8", "value": "not"}]}
